Measured values from patent US12162820B2 (TAIWANJ PHARMACEUTICALS CO., LTD., priority 2019, dated 2024).

Assays:
Format in all cases: biochemical
HDAC3 = biological target: T1, HDAC3 (Homo sapiens, UniProt O15379); assay: HDAC Inhibition Screening Assay (FLUOR DE LYS Fluorimetric Drug Discovery Kit), HDAC3; settings: for inhibition at 2 µM: 2 μM compound; for inhibition at 10 µM: 10 μM compound; for inhibition at 50 µM: 50 μM compound
T1 construct: purchased Enzo Life Sciences
Summary of the method: (§1)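 Two-step fluorimetric kit: enzyme deacetylates acetylated-lysine substrate; developer then releases fluorophore. Test cpds 2, 10, 50 μM. Ex 360/485 nm, Em 460/530 nm. Activity = % of basal control minus baseline control.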

ATX (autotaxin) = biological target: T2, ATX (autotaxin) (Homo sapiens, UniProt Q13822); assay: Autotaxin Inhibition Screening Assay (choline release from LPC, LPC-CR); settings: for inhibition at 4 µM: 4 μM compound; for inhibition at 20 µM: 20 μM compound; for inhibition at 50 µM: 50 μM compound
T2 construct: purchased Cayman 10803
Summary of the method: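 Released choline from 100 μM 14:0 LPC, detected via choline oxidase–HRP–homovanillic acid fluorescence (320/450 nm) kinetically over 90 min, reports activity of 20 ng ATX. Buffer: 50 mM Tris pH 8.0, 50 mM CaCl2, 0.01% Triton X-100; test compounds 4, 20, 50 μM; percent inhibition from blank-subtracted slopes relative to vehicle.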

HDAC2 = biological target: T3, HDAC2 (Homo sapiens, UniProt Q92769); assay: HDAC Inhibition Screening Assay (FLUOR DE LYS Fluorimetric Drug Discovery Kit), HDAC2; settings: for inhibition at 2 µM: 2 μM compound; for inhibition at 10 µM: 10 μM compound; for inhibition at 50 µM: 50 μM compound
T3 construct: purchased Enzo Life Sciences
Summary of the method: as §1

HDAC1 = biological target: T4, HDAC1 (Homo sapiens, UniProt Q13547); assay: HDAC Inhibition Screening Assay (FLUOR DE LYS Fluorimetric Drug Discovery Kit), HDAC1; settings: for inhibition at 2 µM: 2 μM compound; for inhibition at 10 µM: 10 μM compound; for inhibition at 50 µM: 50 μM compound
T4 construct: purchased Enzo Life Sciences
Summary of the method: as §1

T3 sequence (Q92769 whole entry): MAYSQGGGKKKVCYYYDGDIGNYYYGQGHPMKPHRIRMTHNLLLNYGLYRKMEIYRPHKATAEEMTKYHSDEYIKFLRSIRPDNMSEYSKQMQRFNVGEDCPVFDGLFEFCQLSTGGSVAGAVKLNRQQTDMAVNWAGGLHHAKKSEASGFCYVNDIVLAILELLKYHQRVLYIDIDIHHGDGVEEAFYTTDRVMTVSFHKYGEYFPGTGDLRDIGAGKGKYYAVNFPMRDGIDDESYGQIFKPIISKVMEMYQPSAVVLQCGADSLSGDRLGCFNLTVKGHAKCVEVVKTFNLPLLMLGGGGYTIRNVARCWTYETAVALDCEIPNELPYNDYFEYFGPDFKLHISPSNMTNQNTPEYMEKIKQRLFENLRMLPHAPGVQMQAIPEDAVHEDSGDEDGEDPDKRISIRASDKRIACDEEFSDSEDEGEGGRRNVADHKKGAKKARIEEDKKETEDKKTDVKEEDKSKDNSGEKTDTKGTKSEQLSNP
T1 sequence (O15379 whole entry): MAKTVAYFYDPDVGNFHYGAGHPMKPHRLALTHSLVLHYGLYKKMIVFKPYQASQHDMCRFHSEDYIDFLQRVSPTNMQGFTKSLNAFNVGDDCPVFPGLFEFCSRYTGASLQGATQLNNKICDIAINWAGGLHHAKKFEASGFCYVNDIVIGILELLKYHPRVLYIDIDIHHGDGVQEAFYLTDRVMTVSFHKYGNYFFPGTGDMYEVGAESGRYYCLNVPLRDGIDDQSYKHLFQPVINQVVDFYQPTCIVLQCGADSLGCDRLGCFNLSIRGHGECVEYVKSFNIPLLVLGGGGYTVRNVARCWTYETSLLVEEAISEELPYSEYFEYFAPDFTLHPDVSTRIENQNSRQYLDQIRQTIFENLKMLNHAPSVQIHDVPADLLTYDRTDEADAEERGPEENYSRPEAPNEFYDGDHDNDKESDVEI
T1 sequence (O75376 395-489 partner limits assumed): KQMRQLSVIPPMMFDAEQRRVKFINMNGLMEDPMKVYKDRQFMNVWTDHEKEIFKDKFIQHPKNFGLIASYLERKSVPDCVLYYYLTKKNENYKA
T4 sequence (Q13547 whole entry): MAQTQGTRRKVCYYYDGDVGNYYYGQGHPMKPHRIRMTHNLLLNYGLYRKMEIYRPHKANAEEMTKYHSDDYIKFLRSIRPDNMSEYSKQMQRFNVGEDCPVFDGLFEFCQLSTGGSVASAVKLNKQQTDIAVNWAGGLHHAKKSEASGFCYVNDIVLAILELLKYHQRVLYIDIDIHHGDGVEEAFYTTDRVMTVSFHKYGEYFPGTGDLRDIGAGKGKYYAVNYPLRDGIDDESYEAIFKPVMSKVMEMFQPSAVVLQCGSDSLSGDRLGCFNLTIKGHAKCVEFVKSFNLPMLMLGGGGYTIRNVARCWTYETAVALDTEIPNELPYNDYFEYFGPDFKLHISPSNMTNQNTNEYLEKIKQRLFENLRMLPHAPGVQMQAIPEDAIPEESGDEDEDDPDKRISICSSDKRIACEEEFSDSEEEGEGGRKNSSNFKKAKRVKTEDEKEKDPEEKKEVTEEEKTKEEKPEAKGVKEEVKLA

An inhibition at 2 µM (HDAC3) of over 80%, an inhibition at 10 µM (HDAC3) of over 80% and an inhibition at 50 µM (HDAC3) of over 80% were found for `Nc1cc(F)ccc1NC(=O)/C=C/c1ccc2c(c1)CCC2NCCc1c[nH]c2ccccc12` (stereo not drawn) [Compound 57, (E)-3-(1-((2-(1H-indol-3-yl)ethyl)amino)-2,3-dihydro-1H-inden-5-yl)-N-(2-amino-4-fluorophenyl)acrylamide] in this work. The inhibition at 4 µM (ATX (autotaxin)) was under 50%, the inhibition at 20 µM (ATX (autotaxin)) was under 50% and the inhibition at 50 µM (ATX (autotaxin)) was under 50%. It also gave an inhibition at 2 µM (HDAC2) of 50 to 80%, an inhibition at 10 µM (HDAC2) of over 80% and an inhibition at 50 µM (HDAC2) of over 80%. It also gave an inhibition at 2 µM (HDAC1) of under 50%, an inhibition at 10 µM (HDAC1) of 50 to 80% and an inhibition at 50 µM (HDAC1) of over 80%.

An inhibition at 2 µM (HDAC3) of over 80%, an inhibition at 10 µM (HDAC3) of over 80% and an inhibition at 50 µM (HDAC3) of over 80% were found for `O=C(/C=C/c1ccc2c(c1)CCC2NCCc1c[nH]c2ccccc12)NO` (stereo not drawn) [Compound 58, (E)-3-(1-((2-(1H-indol-3-yl)ethyl)amino)-2,3-dihydro-1H-inden-5-yl)-N-hydroxyacrylamide] in this work. The inhibition at 4 µM (ATX (autotaxin)) was under 50%, the inhibition at 20 µM (ATX (autotaxin)) was under 50% and the inhibition at 50 µM (ATX (autotaxin)) was 50 to 80%. The inhibition at 2 µM (HDAC2) was over 80%, the inhibition at 10 µM (HDAC2) was over 80% and the inhibition at 50 µM (HDAC2) was over 80%. The inhibition at 2 µM (HDAC1) was over 80%, the inhibition at 10 µM (HDAC1) was over 80% and the inhibition at 50 µM (HDAC1) was over 80%.

An inhibition at 2 µM (HDAC3) of over 80%, an inhibition at 10 µM (HDAC3) of over 80% and an inhibition at 50 µM (HDAC3) of over 80% were found for `Cc1[nH]c2ccccc2c1CCNC1CCc2cc(/C=C/C(=O)Nc3ccc(F)cc3N)ccc21` (stereo not drawn) [Compound 59, (E)-N-(2-amino-4-fluorophenyl)-3-(1-((2-(2-methyl-1H-indol-3-yl)ethyl)amino)-2,3-dihydro-1H-inden-5-yl)acrylamide] in this work. For the same molecule, the inhibition at 4 µM (ATX (autotaxin)) was under 50%, the inhibition at 20 µM (ATX (autotaxin)) was under 50% and the inhibition at 50 µM (ATX (autotaxin)) was under 50%. It also gave an inhibition at 2 µM (HDAC2) of over 80%, an inhibition at 10 µM (HDAC2) of over 80% and an inhibition at 50 µM (HDAC2) of over 80%. The inhibition at 2 µM (HDAC1) was 50 to 80%, the inhibition at 10 µM (HDAC1) was over 80% and the inhibition at 50 µM (HDAC1) was over 80%.

An inhibition at 2 µM (HDAC3) of over 80%, an inhibition at 10 µM (HDAC3) of over 80% and an inhibition at 50 µM (HDAC3) of over 80% were found for `Cc1[nH]c2ccccc2c1CCNC1CCc2cc(/C=C/C(=O)NO)ccc21` (stereo not drawn) [Compound 60, (E)-N-hydroxy-3-(1-((2-(2-methyl-1H-indol-3-yl)ethyl)amino)-2,3-dihydro-1H-inden-5-yl)acryl amide] in this work. The inhibition at 4 µM (ATX (autotaxin)) was under 50%, the inhibition at 20 µM (ATX (autotaxin)) was under 50% and the inhibition at 50 µM (ATX (autotaxin)) was under 50%. It also gave an inhibition at 2 µM (HDAC2) of over 80%, an inhibition at 10 µM (HDAC2) of over 80% and an inhibition at 50 µM (HDAC2) of over 80%. It also gave an inhibition at 2 µM (HDAC1) of over 80%, an inhibition at 10 µM (HDAC1) of over 80% and an inhibition at 50 µM (HDAC1) of over 80%.

An inhibition at 2 µM (HDAC3) of over 80%, an inhibition at 10 µM (HDAC3) of over 80% and an inhibition at 50 µM (HDAC3) of over 80% were found for `O=C(/C=C/c1ccc2c(c1)CCCC2NCCc1c[nH]c2ccccc12)NO` (stereo not drawn) [Compound 61, (E)-3-(5-((2-(1H-indol-3-yl)ethyl)amino)-5,6,7,8-tetrahydronaphthalen-2-yl)-N-hydroxy acrylamide] in this work. It also gave an inhibition at 4 µM (ATX (autotaxin)) of under 50%, an inhibition at 20 µM (ATX (autotaxin)) of under 50% and an inhibition at 50 µM (ATX (autotaxin)) of under 50%. For the same molecule, the inhibition at 2 µM (HDAC2) was over 80%, the inhibition at 10 µM (HDAC2) was over 80% and the inhibition at 50 µM (HDAC2) was over 80%. The inhibition at 2 µM (HDAC1) was over 80%, the inhibition at 10 µM (HDAC1) was over 80% and the inhibition at 50 µM (HDAC1) was over 80%.

An inhibition at 2 µM (HDAC3) of 50 to 80%, an inhibition at 10 µM (HDAC3) of over 80% and an inhibition at 50 µM (HDAC3) of over 80% were found for `Cc1[nH]c2ccccc2c1CCNC1CCCc2cc(/C=C/C(=O)Nc3ccc(F)cc3N)ccc21` (stereo not drawn) [Compound 62, (E)-N-(2-amino-4-fluorophenyl)-3-(5-((2-(2-methyl-1H-indol-3-yl)ethyl)amino)-5,6,7,8-tetrahydronaphthalen-2-yl)acrylamide] in this work. It also gave an inhibition at 4 µM (ATX (autotaxin)) of under 50%, an inhibition at 20 µM (ATX (autotaxin)) of under 50% and an inhibition at 50 µM (ATX (autotaxin)) of under 50%. For the same molecule, the inhibition at 2 µM (HDAC2) was over 80%, the inhibition at 10 µM (HDAC2) was over 80% and the inhibition at 50 µM (HDAC2) was over 80%. The inhibition at 2 µM (HDAC1) was 50 to 80%, the inhibition at 10 µM (HDAC1) was over 80% and the inhibition at 50 µM (HDAC1) was over 80%.

An inhibition at 2 µM (HDAC3) of over 80%, an inhibition at 10 µM (HDAC3) of over 80% and an inhibition at 50 µM (HDAC3) of over 80% were found for `Cc1[nH]c2ccccc2c1CCNC1CCCc2cc(/C=C/C(=O)NO)ccc21` (stereo not drawn) [Compound 63, (E)-N-hydroxy-3-(5-((2-(2-methyl-1H-indol-3-yl)ethyl)amino)-5,6,7,8-tetrahydronaphthalen-2-yl)acrylamide] in this work. The inhibition at 4 µM (ATX (autotaxin)) was under 50%, the inhibition at 20 µM (ATX (autotaxin)) was under 50% and the inhibition at 50 µM (ATX (autotaxin)) was under 50%. The inhibition at 2 µM (HDAC2) was over 80%, the inhibition at 10 µM (HDAC2) was over 80% and the inhibition at 50 µM (HDAC2) was over 80%. It also gave an inhibition at 2 µM (HDAC1) of over 80%, an inhibition at 10 µM (HDAC1) of over 80% and an inhibition at 50 µM (HDAC1) of over 80%.

An inhibition at 2 µM (HDAC3) of under 50%, an inhibition at 10 µM (HDAC3) of 50 to 80% and an inhibition at 50 µM (HDAC3) of over 80% were found for `CN(C(=O)OCc1cc(C(F)(F)F)cc(C(F)(F)F)c1)C1CCc2cc(/C=C/C(=O)NO)ccc21` (stereo not drawn) [Compound 64, 3,5-bis(trifluoromethyl)benzyl (E)-(5-(3-(hydroxyamino)-3-oxoprop-1-en-1-yl)-2,3-dihydro-1H-inden-1-yl)(methyl)carbamate] in this work. The inhibition at 4 µM (ATX (autotaxin)) was 50 to 80%, the inhibition at 20 µM (ATX (autotaxin)) was 50 to 80% and the inhibition at 50 µM (ATX (autotaxin)) was 50 to 80%. The inhibition at 2 µM (HDAC2) was 50 to 80%, the inhibition at 10 µM (HDAC2) was over 80% and the inhibition at 50 µM (HDAC2) was over 80%. It also gave an inhibition at 2 µM (HDAC1) of 50 to 80%, an inhibition at 10 µM (HDAC1) of over 80% and an inhibition at 50 µM (HDAC1) of over 80%.

An inhibition at 2 µM (HDAC3) of under 50%, an inhibition at 10 µM (HDAC3) of 50 to 80% and an inhibition at 50 µM (HDAC3) of over 80% were found for `CN(C(=O)OCc1cc(C(F)(F)F)cc(C(F)(F)F)c1)C1CCc2ccc(/C=C/C(=O)NO)cc21` (stereo not drawn) [Compound 65, 3,5-bis(trifluoromethyl)benzyl (E)-(6-(3-(hydroxyamino)-3-oxoprop-1-en-1-yl)-2,3-dihydro-1H-inden-1-yl)(methyl)carbamate] in this work. The inhibition at 4 µM (ATX (autotaxin)) was over 80%, the inhibition at 20 µM (ATX (autotaxin)) was over 80% and the inhibition at 50 µM (ATX (autotaxin)) was over 80%. The inhibition at 2 µM (HDAC2) was 50 to 80%, the inhibition at 10 µM (HDAC2) was over 80% and the inhibition at 50 µM (HDAC2) was over 80%. It also gave an inhibition at 2 µM (HDAC1) of under 50%, an inhibition at 10 µM (HDAC1) of 50 to 80% and an inhibition at 50 µM (HDAC1) of over 80%.

An inhibition at 2 µM (HDAC3) of under 50%, an inhibition at 10 µM (HDAC3) of under 50% and an inhibition at 50 µM (HDAC3) of under 50% were found for `Nc1ccccc1NC(=O)c1ccc(COc2ccc3c(c2)CC/C(=C\c2cc(C(F)(F)F)cc(C(F)(F)F)c2)C3=O)cc1` [Compound 66, (E)-N-(2-aminophenyl)-4-(((6-(3,5-bis(trifluoromethyl)-benzylidene)-5-oxo-5,6,7,8-tetrahydronaphthalen-2-yl)oxy)methyl)benzamide] in this work. It also gave an inhibition at 4 µM (ATX (autotaxin)) of under 50%, an inhibition at 20 µM (ATX (autotaxin)) of under 50% and an inhibition at 50 µM (ATX (autotaxin)) of under 50%. For the same molecule, the inhibition at 2 µM (HDAC2) was under 50%, the inhibition at 10 µM (HDAC2) was under 50% and the inhibition at 50 µM (HDAC2) was under 50%. For the same molecule, the inhibition at 2 µM (HDAC1) was under 50%, the inhibition at 10 µM (HDAC1) was under 50% and the inhibition at 50 µM (HDAC1) was under 50%.

An inhibition at 2 µM (HDAC3) of under 50%, an inhibition at 10 µM (HDAC3) of under 50% and an inhibition at 50 µM (HDAC3) of under 50% were found for `Nc1cc(F)ccc1NC(=O)c1ccc(COc2ccc3c(c2)CCC(Cc2cc(C(F)(F)F)cc(C(F)(F)F)c2)C3=O)cc1` (stereo not drawn) [Compound 67, N-(2-amino-4-fluorophenyl)-4-(((6-(3,5-bis(trifluoromethyl)benzyl)-5-oxo-5,6,7,8-tetrahydronaphthalen-2-yl)oxy)methyl)benzamide] in this work. For the same molecule, the inhibition at 4 µM (ATX (autotaxin)) was under 50%, the inhibition at 20 µM (ATX (autotaxin)) was under 50% and the inhibition at 50 µM (ATX (autotaxin)) was under 50%. The inhibition at 2 µM (HDAC2) was under 50%, the inhibition at 10 µM (HDAC2) was under 50% and the inhibition at 50 µM (HDAC2) was under 50%. For the same molecule, the inhibition at 2 µM (HDAC1) was under 50%, the inhibition at 10 µM (HDAC1) was under 50% and the inhibition at 50 µM (HDAC1) was under 50%.
